ChEMBL document CHEMBL3886562, “Substituted pyridone derivatives as PDE10 inhibitors” (2016)

Target: cAMP and cAMP-inhibited cGMP 3',5'-cyclic phosphodiesterase 10A (Homo sapiens, UniProt Q9Y233)
Assay: PDE10 Fluorescence Polarization (FP) Assay: The fluorescence polarization assay for cyclic nucleotide phosphodiesterases was performed using an IMAP FP kit supplied by Molecular Devices, Sunnyvale, Calif. (product # R8139). IMAPU technology has been applied previously to phosphodiesterase assays (Huang, W., et al., J. Biomol Screen, 2002, 7: 215). Assays were performed at room temperature in 384-well microtiter plates with an incubation volume of 20.2 uL. Solutions of test compounds were prepared in DMSO and serially diluted with DMSO to yield 8 uL of each of 10 solutions differing by 3-fold in concentration, at 32 serial dilutions per plate.

Chain of cAMP and cAMP-inhibited cGMP 3',5'-cyclic phosphodiesterase 10A (Q9Y233 whole entry): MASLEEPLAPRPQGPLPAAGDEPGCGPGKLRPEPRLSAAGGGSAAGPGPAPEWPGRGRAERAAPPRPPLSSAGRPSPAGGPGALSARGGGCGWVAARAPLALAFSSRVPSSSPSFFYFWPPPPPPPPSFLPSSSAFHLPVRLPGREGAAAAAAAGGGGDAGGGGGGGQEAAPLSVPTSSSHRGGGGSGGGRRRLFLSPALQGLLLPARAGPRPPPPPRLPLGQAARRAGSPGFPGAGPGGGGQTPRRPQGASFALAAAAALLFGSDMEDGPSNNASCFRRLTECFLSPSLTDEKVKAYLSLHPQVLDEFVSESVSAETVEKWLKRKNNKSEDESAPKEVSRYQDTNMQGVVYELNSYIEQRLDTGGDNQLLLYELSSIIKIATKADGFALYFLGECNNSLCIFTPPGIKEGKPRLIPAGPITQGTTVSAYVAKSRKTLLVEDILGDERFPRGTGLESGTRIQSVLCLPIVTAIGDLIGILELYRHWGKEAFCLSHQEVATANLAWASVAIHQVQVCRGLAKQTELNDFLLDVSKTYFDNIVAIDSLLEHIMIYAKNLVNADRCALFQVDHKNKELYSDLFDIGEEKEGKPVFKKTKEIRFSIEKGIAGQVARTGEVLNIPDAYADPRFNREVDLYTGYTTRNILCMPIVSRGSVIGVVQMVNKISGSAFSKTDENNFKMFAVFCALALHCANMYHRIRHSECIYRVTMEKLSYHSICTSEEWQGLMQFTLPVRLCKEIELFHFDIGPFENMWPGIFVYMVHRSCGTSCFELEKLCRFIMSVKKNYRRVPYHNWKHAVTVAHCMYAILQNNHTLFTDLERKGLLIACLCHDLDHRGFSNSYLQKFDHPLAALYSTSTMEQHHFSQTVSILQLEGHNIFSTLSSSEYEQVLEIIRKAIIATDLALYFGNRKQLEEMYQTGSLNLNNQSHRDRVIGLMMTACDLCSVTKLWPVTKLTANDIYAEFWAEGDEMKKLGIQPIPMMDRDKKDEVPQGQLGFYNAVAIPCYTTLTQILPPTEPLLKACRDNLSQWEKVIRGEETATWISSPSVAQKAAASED

Ki [nM]	SMILES
0.041	Cc1ncc(-c2cc(F)c(=O)n(C)c2)c(OC[C@H]2C[C@@H]2c2ccc3ccccc3n2)n1
3.48	Cc1ccc([C@H]2C[C@@H]2COc2nc(C)ncc2-c2ccc(=O)n(CC#N)c2)nc1
